# Columns and labels:
# human MC3R = details: cited from earlier work
# mMC3R [1] = biological target: T1, mMC3R (Mus musculus, UniProt P33033); assay: 125I-NDP-MSH competitive binding assay at mMC3R; details: vs Ac-His-DPhe-Arg-Trp-NH2; negative = more potent than control
# mMC3R [2] = biological target: T1, mMC3R; details: read-out: mMC3R EC50; cited from earlier work
# mMC4R = mMC4R (Mus musculus, UniProt P56450); details: read-out: mMC4R EC50; cited from earlier work
# hMC4R = details: cited from earlier work
# human MC4R = details: cited from earlier work
# T1 sequence (P33033 whole entry): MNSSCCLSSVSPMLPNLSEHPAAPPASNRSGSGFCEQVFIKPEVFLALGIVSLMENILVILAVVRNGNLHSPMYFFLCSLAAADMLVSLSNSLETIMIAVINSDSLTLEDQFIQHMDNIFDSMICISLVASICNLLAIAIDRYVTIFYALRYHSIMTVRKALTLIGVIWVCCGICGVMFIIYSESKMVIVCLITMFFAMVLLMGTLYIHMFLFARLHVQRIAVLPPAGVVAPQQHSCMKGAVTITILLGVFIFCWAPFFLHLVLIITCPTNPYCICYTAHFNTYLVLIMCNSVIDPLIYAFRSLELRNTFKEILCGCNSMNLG
# mMC4R, sequence (P56450 whole entry): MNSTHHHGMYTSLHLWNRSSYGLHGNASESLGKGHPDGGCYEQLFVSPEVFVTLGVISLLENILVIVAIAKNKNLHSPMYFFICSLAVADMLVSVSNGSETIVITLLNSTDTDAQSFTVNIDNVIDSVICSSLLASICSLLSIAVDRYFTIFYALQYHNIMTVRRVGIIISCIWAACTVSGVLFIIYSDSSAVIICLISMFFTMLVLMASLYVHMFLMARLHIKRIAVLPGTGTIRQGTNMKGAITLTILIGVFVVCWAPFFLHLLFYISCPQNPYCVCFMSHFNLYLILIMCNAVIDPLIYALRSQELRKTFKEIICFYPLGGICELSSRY
compound,measurement,setting,value
CC(=O)N[C@@H](Cc1c[nH]cn1)C(=O)N[C@H](Cc1ccccc1)C(=O)N[C@@H](CCCNC(=N)N)C(=O)N[C@@H](Cc1c[nH]c2ccccc12)C(N)=O [Ac-His-DPhe-Arg-Trp-NH2],IC50,"human MC3R; read-out: human MC3R IC50, previously reported",> 10 µM
"CC(=O)N[C@@H](CCCNC(=N)N)C(=O)N[C@@H](CCCNC(=N)N)C(=O)N[C@H](Cc1ccc(I)cc1)C(=O)N[C@H](Cc1ccc2ccccc2c1)C(N)=O [Compound 41, Ac-Arg-Arg-(pI)DPhe-DNal(2′)-NH2]",mMC3R (IC50) Fold Diff.,mMC3R [1],-115
Ac-Ser-Tyr-Ser-Nle-Glu-His-Arg-Phe-Phe-Gly-Lys-Pro-Val-NH2 (SYSXEHRFFGKPV; HELM PEPTIDE1{[ac].S.Y.S.[Nle].E.H.R.F.F.G.K.P.V.[am]}$$$$V2.0; SMILES CCCC[C@H](NC(=O)[C@H](CO)NC(=O)[C@H](Cc1ccc(O)cc1)NC(=O)[C@H](CO)NC(C)=O)C(=O)N[C@@H](CCC(=O)O)C(=O)N[C@@H](Cc1c[nH]cn1)C(=O)N[C@@H](CCCNC(=N)N)C(=O)N[C@@H](Cc1ccccc1)C(=O)N[C@@H](Cc1ccccc1)C(=O)NCC(=O)N[C@@H](CCCCN)C(=O)N1CCC[C@H]1C(=O)N[C@H](C(N)=O)C(C)C),EC50,mMC3R [2],0.48 µM
same,EC50,mMC4R,0.93 µM
Tic-(pI)DPhe-Arg-Trp-NH2,hMC4R agonist activation with respect to maximal response,hMC4R,> 35%
same,hMC4R antagonist pA2,hMC4R,9.10
same,Ki,hMC4R; read-out: hMC4R antagonist Ki,0.00079 µM
same,binding to human MC4R,human MC4R,0.30 nM
same,binding to human MC3R,human MC3R,75 nM
